Assay results: patent US20120095029A1, “IPP COMPLEX AS MARKER FOR ERLOTINIB TREATMENT” (Hoffmann-La Roche Inc., priority 2010, published 2012)
Counter-ions that a name gives are not always drawn.

Tests used:
PINCH = PINCH (Homo sapiens, UniProt P48059); conditions: H292 cell lysate preincubated with free compound (0-400 μM), then beads with immobilized compound
alpha-parvin = alpha-parvin (Homo sapiens, UniProt Q9NVD7); conditions: H292 cell lysate preincubated with free compound (0-400 μM), then beads with immobilized compound
ILK = ILK (Homo sapiens, UniProt Q13418); conditions: H292 cell lysate preincubated with free compound (0-400 μM), then beads with immobilized compound
NSCLC patients [1] = conditions: single agent; patients for whom standard therapy for advanced disease has failed; cited from earlier work
H358 cells = experiment: Testing EMT transition on H358 NSCLC cell line (TGFbeta3 treatment, western blot); assay type: cell-based, human; conditions: 10 ng/mL TGFbeta3 plus compound 5 μM; for Level of E-cadherin: up to 13 days
Experimental: Cell culture medium was renewed every 3 days. Cell lysis was performed in PBS containing 1% NP-40 and protease inhibitors. After clearing by centrifugation at 12,000 g for 15 min at 4° C., proteins were separated by SDS-PAGE and processed for western blot analysis. Images were acquired using a compact digital camera (Luminescent Image Analyzer: Fujifilm, Tokyo, Japan) and quantified with ImageQuant TL (GE Healthcare, Waukesha, Wis., USA).

NSCLC = conditions: second line therapy of NSCLC; cited from earlier work
patients with NSCLC = conditions: second line after cisplatin-based first-line regimens failed; ECOG 0, 1 or 2; cited from earlier work
NSCLC patients [2] = conditions: unselected patient population; cited from earlier work

alpha-parvin, sequence (Q9NVD7 2-372 limits assumed): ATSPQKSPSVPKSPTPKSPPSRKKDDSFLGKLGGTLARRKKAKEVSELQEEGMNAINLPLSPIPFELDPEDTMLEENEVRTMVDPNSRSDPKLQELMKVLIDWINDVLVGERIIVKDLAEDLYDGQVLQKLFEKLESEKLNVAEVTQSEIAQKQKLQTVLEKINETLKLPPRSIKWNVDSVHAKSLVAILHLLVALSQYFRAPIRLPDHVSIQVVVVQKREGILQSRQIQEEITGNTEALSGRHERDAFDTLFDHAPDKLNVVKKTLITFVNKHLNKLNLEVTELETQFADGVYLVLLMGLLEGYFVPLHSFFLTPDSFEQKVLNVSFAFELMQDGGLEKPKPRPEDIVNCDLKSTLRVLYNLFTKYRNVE
alpha-parvin, sequence (Q13418 whole entry partner): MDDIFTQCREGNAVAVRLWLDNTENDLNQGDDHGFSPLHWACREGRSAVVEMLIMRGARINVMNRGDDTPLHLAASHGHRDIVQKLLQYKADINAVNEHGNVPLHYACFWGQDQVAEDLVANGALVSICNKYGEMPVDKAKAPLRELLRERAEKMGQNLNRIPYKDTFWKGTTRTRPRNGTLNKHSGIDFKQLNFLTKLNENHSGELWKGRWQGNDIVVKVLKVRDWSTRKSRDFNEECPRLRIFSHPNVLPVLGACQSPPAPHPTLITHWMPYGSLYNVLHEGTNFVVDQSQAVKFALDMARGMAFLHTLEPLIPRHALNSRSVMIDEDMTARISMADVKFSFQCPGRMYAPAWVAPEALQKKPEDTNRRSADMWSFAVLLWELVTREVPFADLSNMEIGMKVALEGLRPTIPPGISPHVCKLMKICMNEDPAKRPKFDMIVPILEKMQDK
alpha-parvin, sequence (P48059 2-325 partner limits assumed): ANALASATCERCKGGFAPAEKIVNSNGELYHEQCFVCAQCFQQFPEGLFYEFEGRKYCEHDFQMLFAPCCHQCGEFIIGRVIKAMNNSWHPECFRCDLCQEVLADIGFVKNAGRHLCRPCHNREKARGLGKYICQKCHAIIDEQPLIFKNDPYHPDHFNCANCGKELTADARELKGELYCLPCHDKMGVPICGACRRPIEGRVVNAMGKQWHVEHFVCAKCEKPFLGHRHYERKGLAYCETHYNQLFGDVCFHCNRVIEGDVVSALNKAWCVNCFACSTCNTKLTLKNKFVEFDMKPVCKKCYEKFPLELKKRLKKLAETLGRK
PINCH, sequence (P48059 2-325): as the sequence (P48059 2-325 partner limits assumed) above
PINCH, sequence (Q13418 whole entry partner): as the sequence (Q13418 whole entry partner) above
PINCH, sequence (Q9NVD7 2-372 partner): as the sequence (Q9NVD7 2-372 limits assumed) above
ILK, sequence (Q13418 whole entry): as the sequence (Q13418 whole entry partner) above

Row | SMILES | Signal Reduction (%) PINCH (PINCH) [%] | Signal Reduction (%) alpha-parvin (alpha-parvin) [%] | Signal Reduction (%) ILK (ILK) [%] | Survival of NSCLC patients (NSCLC patients [1]) | ILK expression level (H358 cells) | PINCH expression level (H358 cells) | Level of E-cadherin (H358 cells) | Efficacy compared with docetaxel (NSCLC) | Side effects compared with docetaxel (NSCLC) | Survival (patients with NSCLC) | Clinical benefit (NSCLC patients [2])
1 | C#Cc1cccc(Nc2ncnc3cc(OCCOC)c(OCCOC)cc23)c1 [Erlotinib hydrochloride, erlotinib hydrochloride] | 87.7 | 79.5 | 77.3 | significantly prolongs and improves the survival | do not change | do not change | remained unchanged | – | – | – | –
2 | Nc1nc2[nH]cc(CCc3ccc(C(=O)N[C@@H](CCC(=O)O)C(=O)O)cc3)c2c(=O)[nH]1 [pemetrexed] | – | – | – | – | – | – | – | clinically equivalent efficacy | significantly fewer side effects | – | –
3 | CC(=O)O[C@@]12CO[C@@H]1C[C@H](O)[C@@]1(C)C(=O)[C@H](O)C3=C(C)[C@@H](OC(=O)[C@H](O)[C@@H](NC(=O)OC(C)(C)C)c4ccccc4)C[C@@](O)([C@@H](OC(=O)c4ccccc4)[C@H]21)C3(C)C [docetaxel] | – | – | – | – | – | – | – | – | – | improved survival | –
4 | COc1cc2ncnc(Nc3ccc(F)c(Cl)c3)c2cc1OCCCN1CCOCC1 [Gefitinib, gefitinib] | 0.0 | 0.0 | – | – | not so pronounced | not so pronounced | fails to inhibit the TGFb3-mediated decrease of E-cadherin levels | – | – | – | does not seem to confer clinical benefit
